From patent publication US20250340574A1, “MODULATORS OF CYSTIC FIBROSIS TRANSMEMBRANE CONDUCTANCE REGULATOR” (Vertex Pharmaceuticals Incorporated, priority 2022, published 2025)
Like-named read-outs stand apart in the source and are kept apart here.

Legend:
[1] = amide bond, 13-membered ring, CDMT/NMM, DMF
[2] = target: T1, CFTR (F508del/MF-HBE cells) (Homo sapiens, UniProt P13569, DEL508-508); assay: Ussing chamber assay of CFTR-mediated short-circuit currents, Assay C (0.026 μM to 25 μM, 6 concentrations); type: cell-based; conditions: with 33 nM potentiator and 18 μM Tezacaftor, 20% human serum; for Emax: read-out: C Max activity (%)
T1 construct: human bronchial epithelial (HBE) cells derived from CF subjects heterozygous for F508del and a minimal function CFTR mutation (F508del/MF-HBE); endogenous in cells; host or cells: Primary human bronchial epithelial cells from CF subjects (F508del/MF genotype), differentiated at an air-liquid interface
T1 sequence (P13569 with tags, fused parts or gaps DEL508-508): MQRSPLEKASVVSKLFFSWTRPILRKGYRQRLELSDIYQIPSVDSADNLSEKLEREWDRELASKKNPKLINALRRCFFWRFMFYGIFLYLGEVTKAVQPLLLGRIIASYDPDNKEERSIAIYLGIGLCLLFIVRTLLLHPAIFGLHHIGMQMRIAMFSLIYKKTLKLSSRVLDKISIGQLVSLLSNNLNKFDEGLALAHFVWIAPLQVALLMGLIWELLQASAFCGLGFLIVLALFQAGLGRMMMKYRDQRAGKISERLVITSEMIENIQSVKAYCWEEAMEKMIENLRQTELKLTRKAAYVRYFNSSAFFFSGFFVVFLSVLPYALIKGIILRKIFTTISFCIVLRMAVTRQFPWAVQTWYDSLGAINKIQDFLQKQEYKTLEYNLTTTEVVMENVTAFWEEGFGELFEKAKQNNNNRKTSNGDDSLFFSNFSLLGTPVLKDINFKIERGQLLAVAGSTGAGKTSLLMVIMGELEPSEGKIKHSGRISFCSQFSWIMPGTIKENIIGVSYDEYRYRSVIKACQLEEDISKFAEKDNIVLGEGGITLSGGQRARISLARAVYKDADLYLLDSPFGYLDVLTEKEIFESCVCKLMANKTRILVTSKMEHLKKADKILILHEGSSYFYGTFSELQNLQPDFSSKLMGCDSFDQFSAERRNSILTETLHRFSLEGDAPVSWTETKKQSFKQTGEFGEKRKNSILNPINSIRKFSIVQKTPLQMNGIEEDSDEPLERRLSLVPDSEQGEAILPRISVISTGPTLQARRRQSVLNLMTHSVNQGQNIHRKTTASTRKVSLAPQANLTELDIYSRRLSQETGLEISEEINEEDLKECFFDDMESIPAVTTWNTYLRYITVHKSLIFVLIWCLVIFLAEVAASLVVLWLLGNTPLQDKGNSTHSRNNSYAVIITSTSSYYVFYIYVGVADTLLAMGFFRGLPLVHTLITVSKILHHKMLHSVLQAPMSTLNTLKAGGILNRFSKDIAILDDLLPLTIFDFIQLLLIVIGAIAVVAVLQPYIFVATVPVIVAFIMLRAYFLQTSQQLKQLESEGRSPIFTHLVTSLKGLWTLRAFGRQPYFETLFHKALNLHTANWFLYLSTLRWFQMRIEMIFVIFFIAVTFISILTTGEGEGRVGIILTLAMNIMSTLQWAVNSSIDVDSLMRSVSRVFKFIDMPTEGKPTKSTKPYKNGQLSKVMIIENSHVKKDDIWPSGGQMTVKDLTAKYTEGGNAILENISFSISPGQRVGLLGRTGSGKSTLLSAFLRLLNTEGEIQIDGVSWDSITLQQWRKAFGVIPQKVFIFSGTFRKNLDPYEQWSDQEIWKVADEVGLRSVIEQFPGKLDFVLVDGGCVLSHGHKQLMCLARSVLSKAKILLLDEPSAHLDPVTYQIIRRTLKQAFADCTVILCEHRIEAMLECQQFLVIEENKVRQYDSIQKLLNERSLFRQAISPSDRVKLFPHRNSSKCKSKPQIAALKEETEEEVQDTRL
How it was run: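 F508del/MF-HBE cells were preincubated 18–24 h at 37 °C in 20% human serum with corrector plus 18 μM tezacaftor and either 33 nM (concentration series) or 44 nM (1 μM single point) of the aminotrifluoromethyl triazatricyclic potentiator. Ussing chamber, Vhold=0 mV, 37 °C; forskolin 20 μM stimulation, CFTR ISC taken as inhibitor-cocktail-sensitive current.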

Molecule | EC50 [2] [nM] | Emax [2] [%] | also measured
Cc1cccc(C)c1-c1cc2nc(n1)NS(=O)(=O)c1cccc(c1)C(=O)N(Cc1cnc3c(n1)C(=O)N(C(C)C)C3)[C@H](CC1(C)CC1)CO2 [III-21, (11R)-6-(2,6-Dimethylphenyl)-12-[(6-isopropyl-5-oxo-7H-pyrrolo[3,4-b]pyrazin-3-yl)methyl]-11-[(1-methylcyclopropyl)methyl]-2,2-dioxo-9-oxa-2λ^6-thia-3,5,12,19-tetrazatricyclo[12.3.1.14,8]nonadeca-1(18),4(19),5,7,14,16-hexaen-13-one] | 1000 to 3000 | – | ring closure, yield after HPLC ([1]; from Cc1cccc(C)c1-c1cc(OC[C@@H](CC2(C)CC2)NCc2cnc3c(n2)C(=O)N(C(C)C)C3)nc(NS(=O)(=O)c2cccc(C(=O)O)c2)n1, 9.0 mM, 16.5 h): 31%; Emax ([2]; 18-24 hours): > 60%
CCc1cccc(CC)c1-c1cc2nc(n1)NS(=O)(=O)c1cccc(c1)C(=O)N(Cc1cnc3c(CCOC)c(C(C)(C)C)n(C)c3n1)[C@H](CC(C)C)CO2 [IV-92, (11R)-12-[[6-tert-butyl-7-(2-methoxyethyl)-5-methyl-pyrrolo[2,3-b]pyrazin-3-yl]methyl]-6-(2,6-diethylphenyl)-11-isobutyl-2,2-dioxo-9-oxa-2λ^6-thia-3,5,12,19-tetrazatricyclo[12.3.1.14,8]nonadeca-1(18),4(19),5,7,14,16-hexaen-13-one] | < 1000 | > 60 | ring closure, yield after HPLC ([1]; from CCc1cccc(CC)c1-c1cc(OC[C@@H](CC(C)C)NCc2cnc3c(CCOC)c(C(C)(C)C)n(C)c3n2)nc(NS(=O)(=O)c2cccc(C(=O)O)c2)n1, 34.0 mM, 25.0 °C, 2.0 h): 22%
Cc1cccc(C)c1-c1cc2nc(n1)NS(=O)(=O)c1cccc(c1)C(=O)N(Cc1cnc3c(F)c(C4(C)CC4)n(C)c3n1)[C@H](CC1(C)CC1)CO2 [IV-93, (11R)-6-(2,6-dimethylphenyl)-12-[[7-fluoro-5-methyl-6-(1-methylcyclopropyl)pyrrolo[2,3-b]pyrazin-3-yl]methyl]-11-[(1-methylcyclopropyl)methyl]-2,2-dioxo-9-oxa-2λ^6-thia-3,5,12,19-tetraza-tricyclo[12.3.1.14,8]nonadeca-1(18),4(19),5,7,14,16-hexaen-13-one] | < 1000 | > 60 | ring closure, yield after HPLC ([1]; from Cc1cccc(C)c1-c1cc(OC[C@@H](CC2(C)CC2)NCc2cnc3c(F)c(C4(C)CC4)n(C)c3n2)nc(NS(=O)(=O)c2cccc(C(=O)O)c2)n1, 10.1 mM, 25.0 °C, 16.5 h): 20%
Cc1cccc(C)c1-c1cc2nc(n1)NS(=O)(=O)c1cccc(c1)C(=O)N(Cc1cnc3cc(C(C)(C)C)n(C)c3n1)[C@H](C[C@H]1CCC(C)(C)O1)CO2 [IV-98, (11R)-12-[(6-tert-butyl-5-methyl-pyrrolo[2,3-b]pyrazin-3-yl)methyl]-6-(2,6-dimethylphenyl)-11-[[(2R)-5,5-dimethyltetrahydrofuran-2-yl]methyl]-2,2-dioxo-9-oxa-2λ^6-thia-3,5,12,19-tetrazatricyclo[12.3.1.14,8]nonadeca-1(18),4(19),5,7,14,16-hexaen-13-one] | < 1000 | > 60 | ring closure, yield after HPLC ([1]; from Cc1cccc(C)c1-c1cc(OC[C@@H](C[C@H]2CCC(C)(C)O2)NCc2cnc3cc(C(C)(C)C)n(C)c3n2)nc(NS(=O)(=O)c2cccc(C(=O)O)c2)n1, 22.7 mM, 25.0 °C): 58%
Cc1cccc(C)c1-c1cc2nc(n1)NS(=O)(=O)c1cccc(c1)C(=O)N(Cc1cnc3sc(C4CC4)cc3n1)[C@H](CC13CC(C1)C3)CO2 [IV-42, (11R)-11-(1-bicyclo[1.1.1]pentanylmethyl)-12-[(6-cyclopropylthieno[2,3-b]pyrazin-2-yl)methyl]-6-(2,6-dimethylphenyl)-2,2-dioxo-9-oxa-2λ^6-thia-3,5,12,19-tetrazatricyclo[12.3.1.14,8]nonadeca-1(18),4(19),5,7,14,16-hexaen-13-one] | 1000 to 3000 | > 60 | ring closure, yield after HPLC ([1]; from Cc1cccc(C)c1-c1cc(OC[C@@H](CC23CC(C2)C3)NCc2cnc3sc(C4CC4)cc3n2)nc(NS(=O)(=O)c2cccc(C(=O)O)c2)n1, 8.92 mM, 25.0 °C, 18.0 h): 54%
Cc1cccc(C)c1-c1cc2nc(n1)NS(=O)(=O)c1cccc(c1)C(=O)N(Cc1cnc3oc(C4(C)CCC4)cc3n1)[C@H](CC1(C)CC1)CO2 [Compound I-143, (11R)-6-(2,6-Dimethylphenyl)-12-[[6-(1-methylcyclobutyl)furo[2,3-b]pyrazin-2-yl]methyl]-11-[(1-methylcyclopropyl)methyl]-2,2-dioxo-9-oxa-2λ^6-thia-3,5,12,19-tetrazatricyclo[12.3.1.14,8]nonadeca-1(18),4(19),5,7,14,16-hexaen-13-one] | 3000 to 30000 | – | ring closure, yield after HPLC ([1]; from Cc1cccc(C)c1-c1cc(OC[C@@H](CC2(C)CC2)NCc2cnc3oc(C4(C)CCC4)cc3n2)nc(NS(=O)(=O)c2cccc(C(=O)O)c2)n1, 44.8 mM, 16.0 h): 56%; Emax ([2]; 18-24 hours): > 60%
Cc1cccc(C)c1-c1cc2nc(n1)NS(=O)(=O)c1cccc(c1)C(=O)N(Cc1cnc3cc(C(C)(C)C)[nH]c3n1)[C@H](CC1(C)CC1)CO2 [IV-54, (11R)-12-[(6-tert-butyl-5H-pyrrolo[2,3-b]pyrazin-3-yl)methyl]-6-(2,6-dimethylphenyl)-11-[(1-methylcyclopropyl)methyl]-2,2-dioxo-9-oxa-2λ^6-thia-3,5,12,19-tetrazatricyclo[12.3.1.14,8]nonadeca-1(18),4(19),5,7,14,16-hexaen-13-one] | 3000 to 30000 | > 60 | ring closure, yield after HPLC ([1]; from Cc1cccc(C)c1-c1cc(OC[C@@H](CC2(C)CC2)NCc2cnc3cc(C(C)(C)C)[nH]c3n2)nc(NS(=O)(=O)c2cccc(C(=O)O)c2)n1, 9.99 mM, 25.0 °C, 5.5 h): 44%
(5P,11R)-11-({bicyclo[1.1.1]pentan-1-yl}methyl)-12-({6-tert-butyl-5-methyl-5H-pyrrolo[2,3-b]pyrazin-3-yl}methyl)-7-methyl-6-[2-methyl-6-(2-methylpropyl)phenyl]-9-oxa-2λ^6-thia-3,5,12,19-tetraazatricyclo[12.3.1.1∧{4,8}]nonadeca-1(17),4(19),5,7,14(18),15-hexaene-2,2,13-trione | – | – | ring closure, yield after HPLC ([1]; 22.6 mM, 25.0 °C): 76%
Cc1cccc(C)c1-c1cc2nc(n1)NS(=O)(=O)c1cccc(c1)C(=O)N(Cc1cnc3cc(C(C)(C)C(F)(F)F)n(C)c3n1)[C@H](CC13CC(C1)C3)CO2 [IV-102, (11R)-11-(1-bicyclo[1.1.1]pentanylmethyl)-6-(2,6-dimethylphenyl)-12-[[5-methyl-6-(2,2,2-trifluoro-1,1-dimethyl-ethyl)pyrrolo[2,3-b]pyrazin-3-yl]methyl]-2,2-dioxo-9-oxa-2λ^6-thia-3,5,12,19-tetrazatricyclo[12.3.1.14,8]nonadeca-1(18),4(19),5,7,14,16-hexaen-13-one] | < 1000 | > 60 | ring closure, yield after HPLC ([1]; from Cc1cccc(C)c1-c1cc(OC[C@@H](CC23CC(C2)C3)NCc2cnc3cc(C(C)(C)C(F)(F)F)n(C)c3n2)nc(NS(=O)(=O)c2cccc(C(=O)O)c2)n1, 9.8 mM, 25.0 °C, 4.0 h): 65%
Cc1cccc(C)c1-c1cc2nc(n1)NS(=O)(=O)c1cccc(c1)C(=O)N(Cc1cnc3cc(C(C)(C)C)n(C)c3n1)[C@H](C1CCCO1)CO2 (single isomer, unassigned; isomer a) | – | – | ring closure, yield after HPLC ([1]; from Cc1cccc(C)c1-c1cc(OC[C@H](NCc2cnc3cc(C(C)(C)C)n(C)c3n2)C2CCCO2)nc(NS(=O)(=O)c2cccc(C(=O)O)c2)n1, 13.2 mM, 25.0 °C, 20.0 h): 53%
Cc1cccc(C)c1-c1cc2nc(n1)NS(=O)(=O)c1cccc(c1)C(=O)N(Cc1nc3cc(C4CC4)oc3cc1F)[C@H](CC1(C)CC1)CO2 [Compound I-197, (11R)-12-[(2-cyclopropyl-6-fluoro-furo[3,2-b]pyridin-5-yl)methyl]-6-(2,6-dimethylphenyl)-11-[(1-methylcyclopropyl)methyl]-2,2-dioxo-9-oxa-2λ^6-thia-3,5,12,19-tetrazatricyclo[12.3.1.14,8]nonadeca-1(18),4(19),5,7,14,16-hexaen-13-one] | 1000 to 3000 | – | ring closure, yield after HPLC ([1]; from Cc1cccc(C)c1-c1cc(OC[C@@H](CC2(C)CC2)NCc2nc3cc(C4CC4)oc3cc2F)nc(NS(=O)(=O)c2cccc(C(=O)O)c2)n1, 19.2 mM, 16.33 h): 62%; Emax ([2]; 18-24 hours): > 60%
Cc1cccc(C)c1-c1cc2nc(n1)NS(=N)(=O)c1cccc(c1)C(=O)N(Cc1cnc3oc(C4CC4)cc3n1)[C@H](CC(C)(C)C)CO2 (single isomer, unassigned; isomer a) | – | – | ring closure, yield after HPLC ([1]; from 3-[[[4-[(2R)-2-[(6-Cyclopropylfuro[2,3-b]pyrazin-2-yl)methylamino]-4,4-dimethyl-pentoxy]-6-(2,6-dimethylphenyl)pyrimidin-2-yl]amino]sulfonimidoyl]benzoic acid (hydrochloride salt) (isomer A), 14.2 mM): 23%
